According to patent US9340590B2 (priority 2011, dated 2016):
Read-outs that look alike come from different tables or passages of the source. Positions of bridges follow the written chain, without caps; N, C: chain ends. Non-standard residues stand in square brackets, D forms with d. Residues, ends and D or L forms follow the SMILES beside them. Abu = CC[C@H](N)C(=O)O

Legend:
[1] = system: locomotor activity in male CD-1 mice; conditions: 5 mg/kg
in vivo [2] = conditions: male, CD-1, mouse, sc, 5 mg/kg, terminal exposure (peptide plasma concentration at 2 h post peptide injection), later studies, 5 mg/kg s.c.
hNav1.5 [3] = biological target: T1, hNav1.5 (Homo sapiens, UniProt Q14524); test: cell-based; conditions: IonWorks Quattro; clamped to −110 mV, depolarized to −10 mV, 5 min after compound; n=2; read-out: IWQ Use Nav1.5
T1 sequence (Q14524 whole entry, looked up): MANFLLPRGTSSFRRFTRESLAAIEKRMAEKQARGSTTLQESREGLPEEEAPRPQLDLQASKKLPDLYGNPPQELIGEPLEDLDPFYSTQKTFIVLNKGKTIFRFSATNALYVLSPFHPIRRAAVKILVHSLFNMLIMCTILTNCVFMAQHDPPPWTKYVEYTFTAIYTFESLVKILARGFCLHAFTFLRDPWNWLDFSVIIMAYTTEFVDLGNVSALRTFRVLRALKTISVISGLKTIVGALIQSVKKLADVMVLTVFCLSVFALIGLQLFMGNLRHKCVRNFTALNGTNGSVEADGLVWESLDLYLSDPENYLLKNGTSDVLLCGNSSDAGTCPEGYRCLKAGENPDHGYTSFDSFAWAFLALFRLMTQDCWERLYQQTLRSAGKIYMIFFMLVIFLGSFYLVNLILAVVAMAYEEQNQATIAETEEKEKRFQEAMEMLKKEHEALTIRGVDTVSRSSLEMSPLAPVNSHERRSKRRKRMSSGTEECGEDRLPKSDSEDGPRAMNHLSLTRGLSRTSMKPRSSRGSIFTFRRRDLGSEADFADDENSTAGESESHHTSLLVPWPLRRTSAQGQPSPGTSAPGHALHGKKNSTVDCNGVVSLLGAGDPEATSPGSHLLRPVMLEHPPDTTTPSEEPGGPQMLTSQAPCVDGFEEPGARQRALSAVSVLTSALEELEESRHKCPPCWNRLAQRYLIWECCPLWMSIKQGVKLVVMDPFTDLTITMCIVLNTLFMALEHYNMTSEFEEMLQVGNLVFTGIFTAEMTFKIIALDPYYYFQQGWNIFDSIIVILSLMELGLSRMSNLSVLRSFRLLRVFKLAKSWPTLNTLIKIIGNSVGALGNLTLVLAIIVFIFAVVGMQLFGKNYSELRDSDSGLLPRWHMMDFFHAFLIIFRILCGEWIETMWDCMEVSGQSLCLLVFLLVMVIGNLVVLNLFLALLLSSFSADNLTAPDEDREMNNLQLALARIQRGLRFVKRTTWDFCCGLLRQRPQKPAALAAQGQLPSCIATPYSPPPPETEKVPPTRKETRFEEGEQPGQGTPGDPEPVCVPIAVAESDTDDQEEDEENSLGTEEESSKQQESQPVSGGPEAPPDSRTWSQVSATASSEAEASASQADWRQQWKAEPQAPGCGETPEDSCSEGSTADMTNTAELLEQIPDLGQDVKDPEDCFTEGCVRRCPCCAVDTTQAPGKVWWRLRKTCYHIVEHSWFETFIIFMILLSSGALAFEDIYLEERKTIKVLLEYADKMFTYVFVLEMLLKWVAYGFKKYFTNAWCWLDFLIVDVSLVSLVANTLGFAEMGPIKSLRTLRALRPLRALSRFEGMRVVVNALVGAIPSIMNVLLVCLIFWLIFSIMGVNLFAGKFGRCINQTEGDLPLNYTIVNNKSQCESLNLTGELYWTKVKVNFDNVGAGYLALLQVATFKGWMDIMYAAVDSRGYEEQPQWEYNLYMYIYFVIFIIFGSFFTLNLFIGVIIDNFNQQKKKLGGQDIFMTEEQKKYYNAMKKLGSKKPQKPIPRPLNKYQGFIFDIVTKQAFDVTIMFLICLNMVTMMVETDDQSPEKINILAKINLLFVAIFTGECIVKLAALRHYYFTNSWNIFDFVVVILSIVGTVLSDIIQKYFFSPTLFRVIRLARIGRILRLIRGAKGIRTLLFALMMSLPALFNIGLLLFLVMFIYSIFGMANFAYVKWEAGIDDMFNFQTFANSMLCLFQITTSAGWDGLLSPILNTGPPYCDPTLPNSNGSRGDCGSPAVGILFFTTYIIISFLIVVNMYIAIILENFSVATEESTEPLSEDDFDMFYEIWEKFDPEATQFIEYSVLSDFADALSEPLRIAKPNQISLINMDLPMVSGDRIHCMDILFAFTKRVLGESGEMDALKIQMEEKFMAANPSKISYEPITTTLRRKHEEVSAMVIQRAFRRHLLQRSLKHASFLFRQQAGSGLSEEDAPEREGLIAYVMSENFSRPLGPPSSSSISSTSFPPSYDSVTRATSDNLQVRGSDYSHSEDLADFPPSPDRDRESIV

in vitro [4] = conditions: mouse, plasma
[5] = mouse plasma, 37° C., incubation time 0 hr (normalisation point)
in vitro [6] = conditions: human, plasma
hNav1.3 [7] = biological target: T2, hNav1.3 (Homo sapiens, UniProt Q9NY46); test: cell-based; format: cell-based
T2 sequence (Q9NY46 whole entry, looked up): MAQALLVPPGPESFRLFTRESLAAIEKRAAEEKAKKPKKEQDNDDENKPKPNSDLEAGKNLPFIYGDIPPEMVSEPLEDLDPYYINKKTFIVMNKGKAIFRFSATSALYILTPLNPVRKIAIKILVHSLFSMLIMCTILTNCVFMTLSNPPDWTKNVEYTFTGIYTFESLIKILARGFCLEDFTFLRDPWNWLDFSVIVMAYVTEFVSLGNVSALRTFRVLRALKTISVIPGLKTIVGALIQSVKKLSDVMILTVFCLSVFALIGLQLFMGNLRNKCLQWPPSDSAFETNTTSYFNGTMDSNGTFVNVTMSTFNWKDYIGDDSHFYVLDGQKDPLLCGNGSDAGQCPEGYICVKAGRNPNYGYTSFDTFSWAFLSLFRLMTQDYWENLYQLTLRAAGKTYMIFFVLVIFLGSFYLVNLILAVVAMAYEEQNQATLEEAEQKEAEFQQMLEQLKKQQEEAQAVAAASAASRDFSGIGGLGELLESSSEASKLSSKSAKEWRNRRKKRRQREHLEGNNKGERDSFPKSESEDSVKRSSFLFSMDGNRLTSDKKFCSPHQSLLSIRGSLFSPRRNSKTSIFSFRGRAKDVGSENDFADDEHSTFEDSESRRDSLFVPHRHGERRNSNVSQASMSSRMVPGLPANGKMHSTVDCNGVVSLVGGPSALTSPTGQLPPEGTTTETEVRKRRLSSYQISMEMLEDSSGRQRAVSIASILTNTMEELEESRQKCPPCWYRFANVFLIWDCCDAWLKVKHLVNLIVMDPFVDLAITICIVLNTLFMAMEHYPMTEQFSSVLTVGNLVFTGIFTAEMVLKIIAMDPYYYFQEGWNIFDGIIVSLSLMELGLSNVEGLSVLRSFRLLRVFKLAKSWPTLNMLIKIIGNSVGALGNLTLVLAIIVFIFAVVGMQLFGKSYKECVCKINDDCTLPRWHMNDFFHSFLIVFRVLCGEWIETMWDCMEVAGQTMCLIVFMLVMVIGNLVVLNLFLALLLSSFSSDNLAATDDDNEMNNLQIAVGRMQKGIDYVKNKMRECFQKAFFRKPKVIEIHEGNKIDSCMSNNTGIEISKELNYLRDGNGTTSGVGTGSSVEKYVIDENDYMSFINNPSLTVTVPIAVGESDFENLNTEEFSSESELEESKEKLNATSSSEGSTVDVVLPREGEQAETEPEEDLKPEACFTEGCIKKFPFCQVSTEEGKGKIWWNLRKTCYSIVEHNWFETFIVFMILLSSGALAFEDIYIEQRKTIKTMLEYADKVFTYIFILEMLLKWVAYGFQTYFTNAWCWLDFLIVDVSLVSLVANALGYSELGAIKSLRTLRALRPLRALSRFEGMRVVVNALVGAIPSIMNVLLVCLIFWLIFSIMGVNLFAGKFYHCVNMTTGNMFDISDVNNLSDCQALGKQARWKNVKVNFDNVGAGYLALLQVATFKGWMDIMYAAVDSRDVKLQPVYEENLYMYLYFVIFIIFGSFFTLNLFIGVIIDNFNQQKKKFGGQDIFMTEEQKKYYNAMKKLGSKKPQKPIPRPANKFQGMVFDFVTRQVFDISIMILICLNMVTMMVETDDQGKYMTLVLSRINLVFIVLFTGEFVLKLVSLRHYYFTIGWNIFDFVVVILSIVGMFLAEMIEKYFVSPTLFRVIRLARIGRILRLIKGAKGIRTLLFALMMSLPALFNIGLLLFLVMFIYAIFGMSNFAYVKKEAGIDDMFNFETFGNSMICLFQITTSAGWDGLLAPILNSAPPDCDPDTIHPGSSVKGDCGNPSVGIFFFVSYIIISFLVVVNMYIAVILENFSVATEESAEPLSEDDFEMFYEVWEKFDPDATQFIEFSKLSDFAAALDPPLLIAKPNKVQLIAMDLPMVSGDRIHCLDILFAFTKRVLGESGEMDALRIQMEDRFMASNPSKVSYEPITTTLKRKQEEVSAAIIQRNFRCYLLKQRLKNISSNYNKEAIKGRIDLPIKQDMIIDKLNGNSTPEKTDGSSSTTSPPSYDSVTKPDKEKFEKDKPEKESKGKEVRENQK

[8] = human plasma, 37° C., incubation time 0 hr (normalisation point)
hNav1.7 [9] = biological target: T3, hNav1.7 (Homo sapiens, UniProt Q15858); test: cell-based; conditions: Nav1.7 Use IC50
hNav1.3 [10] = biological target: T2, hNav1.3; test: cell-based; conditions: IonWorks Quattro; clamped to −110 mV, depolarized to −10 mV, 5 min after compound; n=2; read-out: IWQ Use Nav1.3
hNav1.5 [11] = biological target: T1, hNav1.5; test: cell-based; conditions: read-out: Nav1.5 Use IC50
[12] = rat plasma, 37° C.
in vivo [13] = conditions: male, CD-1, mouse, sc, 5 mg/kg, terminal exposure (peptide plasma concentration at 45 min post formalin injection)
[14] = system: veratridine-induced spontaneous nociceptive behaviors in male CD-1 mice; conditions: mouse, in vivo
NaV1.7 = conditions: read-out: EC50, impairs fast inactivation; cited from earlier work
[15] = system: C-fiber compound action potential; conditions: cited from earlier work
mechanical hyperalgesia = conditions: rat, in vivo; cited from earlier work
[16] = rat, in vivo, 0.1 mg/kg; cited from earlier work
hNav1.5 [17] = biological target: T1, hNav1.5; format: cell-based
hNav1.7 [18] = biological target: T3, hNav1.7; format: cell-based
hNav1.4 = hNav1.4 (Homo sapiens, UniProt P35499); test: cell-based; conditions: read-out: Nav1.4 Use IC50

Molecule: CC[C@@H]1NC(=O)[C@H](CC(=O)O)NC(=O)[C@@H]2CCCN2C(=O)[C@H](CCC(=O)O)NC(=O)[C@@H]2CSSC[C@@H]3NC(=O)[C@H](C(C)C)NC(=O)[C@H](CC(C)C)NC(=O)[C@H](CC(N)=O)NC(=O)[C@@H]4CCCN4C(=O)[C@H](CCCNC(=N)N)NC(=O)[C@H](CSSC[C@H](NC(=O)[C@@H](N)CC(=O)O)C(=O)N[C@@H](CC(C)C)C(=O)NCC(=O)N[C@@H](C)C(=O)N[C@@H](Cc4ccccc4)C(=O)N[C@@H](CCCNC(=N)N)C(=O)N[C@@H](CCCCN)C(=O)N2)NC(=O)[C@H](CSSC[C@@H](C(=O)N[C@@H](CCCCN)C(=O)N[C@@H](Cc2ccc(O)cc2)C(=O)N[C@H](C(=O)N[C@@H](Cc2ccccc2)C(N)=O)C(C)C)NC(=O)[C@H](Cc2c[nH]c4ccccc24)NC(=O)[C@H](CCCNC(=N)N)NC(=O)[C@H](Cc2c[nH]cn2)NC(=O)[C@H](CC(C)C)NC(=O)[C@H](CCCNC(=N)N)NC(=O)[C@H](CO)NC3=O)NC(=O)[C@H](CCCCN)NC(=O)[C@H](CC(=O)O)NC1=O (H-DCLGAFRKCEPD[Abu]DKCCRPNLVCSRLHRWCKYVF-NH2; disulfide 2-17, 9-23, 16-30)
- behavior of animals in the open field analysis [1]: moribund behavior or lethality
- level at time molar at 2 h (in vivo [2]): 1720 ± 313 nM

Molecule: CC[C@H](C)[C@@H]1NC(=O)[C@@H]2CSSC[C@@H]3NC(=O)[C@H](C(C)C)NC(=O)[C@H](CC(C)C)NC(=O)[C@H](CC(N)=O)NC(=O)[C@@H]4CCCN4C(=O)[C@H](CCCNC(=N)N)NC(=O)[C@H](CSSC[C@H](N)C(=O)N[C@@H](CC(C)C)C(=O)NCC(=O)N[C@@H](Cc4ccccc4)C(=O)N[C@@H](CCSC)C(=O)N[C@@H](CCCNC(=N)N)C(=O)N[C@@H](CCCCN)C(=O)N2)NC(=O)[C@H](CSSC[C@@H](C(=O)N[C@@H](CCCCN)C(=O)N[C@@H](Cc2ccc(O)cc2)C(=O)N[C@H](C(=O)N[C@@H](Cc2ccccc2)C(N)=O)C(C)C)NC(=O)[C@H](Cc2c[nH]c4ccccc24)NC(=O)[C@H](CCCCN)NC(=O)[C@H](Cc2cnc[nH]2)NC(=O)[C@H]([C@@H](C)O)NC(=O)[C@H](CCCNC(=N)N)NC(=O)[C@H](CO)NC3=O)NC(=O)[C@H](CCCCN)NC(=O)[C@H](CC(=O)O)NC(=O)[C@H](CC(N)=O)NC(=O)[C@H](CC(=O)O)NC(=O)[C@@H]2CCCN2C1=O [SEQ ID NO: 108] (H-CLGFMRKCIPDNDKCCRPNLVCSRTHKWCKYVF-NH2; disulfide 1-16, 8-22, 15-29)
- IC50 (hNav1.5 [3]): 8220 nM
- remaining at 2 h (in vitro [4]): 100%
- remaining at 4 h (in vitro [4]): 95%
- remaining at 8 h (in vitro [4]): 87%
- remaining at 24 h (in vitro [4]): 81%
- % peptide remaining [5]: 100%
- remaining at 2 h (in vitro [6]): 107%
- remaining at 4 h (in vitro [6]): 92%
- remaining at 8 h (in vitro [6]): 91%
- remaining at 24 h (in vitro [6]): 82%
- IC50 (hNav1.3 [7]; Nav1.3 Use IC50): 15 nM
- % peptide remaining [8]: 100%
- IC50 (hNav1.7 [9]): 7 nM
- IC50 (hNav1.3 [10]): 50 nM

Molecule: CSCC[C@@H]1NC(=O)[C@H](Cc2ccccc2)NC(=O)CNC(=O)[C@H](CC(C)C)NC(=O)[C@@H](NC(=O)[C@@H](N)CC(=O)O)CSSC[C@@H]2NC(=O)[C@@H]3CSSC[C@@H](C(=O)N[C@@H](CCCCN)C(=O)N[C@@H](Cc4ccc(O)cc4)C(=O)N[C@H](C(=O)N[C@@H](Cc4ccccc4)C(N)=O)C(C)C)NC(=O)[C@H](Cc4c[nH]c5ccccc45)NC(=O)[C@H](CCCCN)NC(=O)[C@H](Cc4c[nH]cn4)NC(=O)[C@H]([C@@H](C)O)NC(=O)[C@H](CCCNC(=N)N)NC(=O)[C@H](CO)NC(=O)[C@H](CSSC[C@H](NC(=O)[C@H](CCCCN)NC(=O)[C@H](CCCNC(=N)N)NC1=O)C(=O)N[C@@H](Cc1cccc4ccccc14)C(=O)N1CCC[C@H]1C(=O)N[C@@H](CC(=O)O)C(=O)N[C@@H](CC(N)=O)C(=O)N[C@@H](CC(=O)O)C(=O)N[C@@H](CCCCN)C(=O)N3)NC(=O)[C@H](C(C)C)NC(=O)[C@H](CC(C)C)NC(=O)[C@H](CC(N)=O)NC(=O)[C@@H]1CCCN1C(=O)[C@H](CCCNC(=N)N)NC2=O [[1-Nal10]GpTx-1(1-34)]
- IC50 (hNav1.5 [11]): 12900 nM
- % peptide remaining ([12]; incubation time 0 hr): 100%
- % peptide remaining ([12]; incubation time 2 hr): 104%
- % peptide remaining ([12]; incubation time 4 hr): 106%
- % peptide remaining ([12]; incubation time 6 hr): 108%
- % peptide remaining ([12]; incubation time 8 hr): 112%
- % peptide remaining ([12]; incubation time 24 hr): 89%
- IC50 (hNav1.3 [7]; Nav1.3 Use IC50): 39 nM
- IC50 (hNav1.7 [9]): 5 nM

Molecule: CC[C@H](C)[C@@H]1NC(=O)[C@@H]2CSSC[C@@H]3NC(=O)[C@H](C(C)C)NC(=O)[C@H](CC(C)C)NC(=O)[C@H](CC(N)=O)NC(=O)[C@@H]4CCCN4C(=O)[C@H](CCCNC(=N)N)NC(=O)[C@H](CSSC[C@H](NC(=O)[C@@H](N)CC(=O)O)C(=O)N[C@@H](CC(C)C)C(=O)NCC(=O)N[C@@H](Cc4ccccc4)C(=O)N[C@@H](CCSC)C(=O)N[C@@H](CCCNC(=N)N)C(=O)N[C@@H](CCCCN)C(=O)N2)NC(=O)[C@H](CSSC[C@@H](C(=O)N[C@@H](CCCCN)C(=O)N[C@@H](Cc2ccc(O)cc2)C(=O)N[C@H](C(=O)N[C@@H](Cc2ccccc2)C(N)=O)C(C)C)NC(=O)[C@H](Cc2c[nH]c4ccccc24)NC(=O)[C@H](CCC(=O)O)NC(=O)[C@H](Cc2cnc[nH]2)NC(=O)[C@H]([C@@H](C)O)NC(=O)[C@H](CCCNC(=N)N)NC(=O)[C@H](CO)NC3=O)NC(=O)[C@H](CCCCN)NC(=O)[C@H](CC(=O)O)NC(=O)[C@H](CC(N)=O)NC(=O)[C@H](CC(=O)O)NC(=O)[C@@H]2CCCN2C1=O [[Glu28]GpTx-1(1-34)] (H-DCLGFMRKCIPDNDKCCRPNLVCSRTHEWCKYVF-NH2; disulfide 2-17, 9-23, 16-30)
- level at time molar at 2 h (in vivo [2]): 1280 ± 403 nM
- IC50 (hNav1.7 [9]): 26 nM

Molecule: CC[C@H](C)[C@@H]1NC(=O)[C@@H]2CSSC[C@@H]3NC(=O)[C@H](C(C)C)NC(=O)[C@H](CC(C)C)NC(=O)[C@H](CC(N)=O)NC(=O)[C@@H]4CCCN4C(=O)[C@H](CCCNC(=N)N)NC(=O)[C@H](CSSC[C@H](NC(=O)[C@@H](N)CC(=O)O)C(=O)N[C@@H](CC(C)C)C(=O)NCC(=O)N[C@@H](Cc4ccccc4)C(=O)N[C@@H](CCSC)C(=O)N[C@@H](CCCNC(=N)N)C(=O)N[C@@H](CCCCN)C(=O)N2)NC(=O)[C@H](CSSC[C@@H](C(=O)N[C@@H](CCCCN)C(=O)N[C@@H](Cc2ccc(O)cc2)C(=O)N[C@H](C(=O)N[C@@H](Cc2ccccc2)C(N)=O)C(C)C)NC(=O)[C@H](CCC(=O)O)NC(=O)[C@H](CCCCN)NC(=O)[C@H](Cc2cnc[nH]2)NC(=O)[C@H]([C@@H](C)O)NC(=O)[C@H](CCCNC(=N)N)NC(=O)[C@H](CO)NC3=O)NC(=O)[C@H](CCCCN)NC(=O)[C@H](CC(=O)O)NC(=O)[C@H](CC(N)=O)NC(=O)[C@H](CC(=O)O)NC(=O)[C@@H]2CCCN2C1=O [[Glu29]GpTx-1(1-34)] (H-DCLGFMRKCIPDNDKCCRPNLVCSRTHKECKYVF-NH2; disulfide 2-17, 9-23, 16-30)
- level at time molar at […] (in vivo [13]): 502 ± 271 nM
- level at time molar at 2 h (in vivo [2]): 771 ± 272 nM

Molecule: Cc1cccc(C)c1OCC(C)N (stereo not drawn) [mexiletine, reference compound]
- veratridine-induced paw lifting behavior [14]: significantly reversed

Molecule: GVRDAYIADDKNCVYTCASNGYCNTECTKNGAESGYCQWIGRYGNACWCIKLPDEVPIRIPGKCR [OD1]
- EC50 (NaV1.7): 4.5 nM

Molecule: YCQKWMWTCDSERKCCEGMVCRLWCKKKLW [ProTx-II, YCQKWMWTCDSERKCCEGMVCRLWCKKKLW]
- C-fiber compound action potential [15]: completely blocked
- action potential propagation [15]: little effect
- efficacy in a mechanical hyperalgesia study (mechanical hyperalgesia): not efficacious
- tolerability in rats [16]: lethal

Molecule: [Phe6,Atz(2 kDa EtO-PEG*-{[Phe6,Atz13*]GpTx-1(1-34)}) 13]GpTx-1(1-34) [Homodimeric Conjugate 1]
- inhibition of the Nav1.5 current (hNav1.5 [17]): complete inhibition
- IC50 (hNav1.5 [17]; read-out: IC50 against hNav1.5 sodium channels): 75.5 nM
- IC50 (hNav1.5 [17]; read-out: IC50 against hNav1.5 sodium channels, partially inactivated): 57 nM
- IC50 (hNav1.5 [11]): 1430 nM
- inhibition of the Nav1.7 current (hNav1.7 [18]): complete inhibition
- IC50 (hNav1.4): 254 nM
- IC50 (hNav1.3 [7]; read-out: Nav1.3 Use IC50): 8 nM
